Experimental data published in patent US8288375B2, “Fungicidal bicyclic pyrazoles” (E.I. du Pont de Nemours and Company, priority 2007, dated 2012).

Experiments:
Type in all cases: in vivo
Septoria nodorum = test: Test D: wheat glume blotch, test suspension sprayed on wheat seedlings, disease rating; conditions: 200 ppm test suspension
[1] = system: Erysiphe graminis f. sp. tritici; test: Test A: wheat powdery mildew, test suspension sprayed on wheat seedlings, disease rating; conditions: 200 ppm test suspension, 100 = 100% disease control, 0 = no control
Septoria tritici = test: Test E: wheat leaf blotch, test suspension sprayed on wheat seedlings, disease rating; conditions: 200 ppm test suspension;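 also: 200 ppm unless marked * meaning 40 ppm or ** meaning 10 ppm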
Botrytis cinerea = test: Test H: tomato Botrytis, test suspension sprayed on tomato seedlings, disease rating; conditions: 200 ppm test suspension
[2] = system: Puccinia recondite f sp. tritici; test: Test B: wheat leaf rust, test suspension sprayed on wheat seedlings, disease rating; conditions: 200 ppm test suspension;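 also: 200 ppm unless marked * meaning 40 ppm or ** meaning 10 ppm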
Alternaria solani = test: Test G: tomato early blight, test suspension sprayed on seedlings, disease rating; conditions: 200 ppm test suspension;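 also: 200 ppm unless marked * meaning 40 ppm or ** meaning 10 ppm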
Fusarium graminearum = test: whole plant or invertebrate; conditions: for Test C disease control rating: 200 ppm test suspension
Rhizoctonia oryzae = test: Test I: turf brown patch, test suspension sprayed on creeping bent grass seedlings, disease rating; conditions: 200 ppm test suspension
Phytophthora infestans = test: whole plant or invertebrate; conditions: for Test J disease control rating: 200 ppm test suspension
Pythium aphanidermatum = test: Test L: bluegrass pythium blight, test suspension sprayed on bluegrass seedlings, disease rating; conditions: 200 ppm test suspension;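 also: 200 ppm unless marked * meaning 40 ppm or ** meaning 10 ppm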

Row | SMILES | Test D disease control rating (Septoria nodorum) [%] | Test A disease control rating [1] [%] | Test E disease control rating (Septoria tritici) [%] | Test H disease control rating (Botrytis cinerea) [%] | Test B disease control rating [2] [%] | Test G disease control rating (Alternaria solani) [%] | Test C disease control rating (Fusarium graminearum) [%] | Test I disease control rating (Rhizoctonia oryzae) [%] | Test J disease control rating (Phytophthora infestans) [%] | Test L disease control rating (Pythium aphanidermatum) [%] | pest or weed control at 200 ppm (Fusarium graminearum; Fusarium graminearum, in Triticum aestivum, 192 h, read-out: Test C disease control rating) [%] | pest or weed control at 200 ppm (Phytophthora infestans; Phytophthora infestans, in Solanum lycopersicum, 120 h, read-out: Test J disease control rating) [%] | pest or weed control at 200 ppm (Pythium aphanidermatum; Pythium aphanidermatum, 120 h) [%] | pest or weed control at 200 ppm (Septoria nodorum; Parastagonospora nodorum, 216 h) [%] | pest or weed control at 200 ppm ([1]; Blumeria graminis, 192 h) [%] | pest or weed control at 200 ppm (Septoria tritici; Zymoseptoria tritici, 504 h) [%] | pest or weed control at 200 ppm ([2]; Puccinia, 192 h) [%]
1 | CCNc1nccc(-c2c(-c3cccc(C)c3)nn3c2CCCC3)n1 [compound 186] | 99 | 79 | 95 | 99 | 99 | 99 |  |  |  |  |  |  |  |  |  |  | 
2 | Cc1cccc(-c2nn3c(c2-c2ccnc(NC4CC4)n2)CCCC3)c1 [compound 181] | 100 | 97 | 100 | 94 | 100 | 99 | 100 |  |  |  |  |  |  |  |  |  | 
3 | CCCNc1nccc(-c2c(-c3ccccc3)nn3c2COCC3)n1 [compound 184] | 90 | 61 | 100 | 80 | 99 | 98 | 99 |  |  |  |  |  |  |  |  |  | 
4 | CCCNc1nccc(-c2c(-c3cccc(C)c3)nn3c2CCCC3)n1 [compound 185] | 99 | 74 | 97 | 99 | 97 | 95 |  |  |  |  |  |  |  |  |  |  | 
5 | COc1cc(Nc2nccc(-c3c(-c4ccccc4)nn4c3CCCC4)n2)ccc1F [compound 182] | 97 | 92 | 100 | 81 | 77 |  |  |  |  |  |  |  |  |  |  |  | 
6 | CCNc1nccc(-c2c(-c3ccccc3)nn3c2COCC3)n1 [compound 183] | 97 |  | 100 | 81 | 100 |  | 99 |  |  |  |  |  |  |  |  |  | 
7 | CCNc1nccc(-c2c(-c3ccccc3)nn3c2CCCC3)n1 [compound 143] | 100 | 96 | 100 |  | 100 |  | 99 | 86 |  |  |  |  |  |  |  |  | 
8 | c1cc(-c2c(-c3ccsc3)nn3c2CCCC3)nc(NC2CC2)n1 [compound 180] | 98 | 79 | 100 | 96 | 99 |  | 96 |  |  |  |  |  |  |  |  |  | 
9 | CCCNc1nccc(-c2c(-c3ccccc3)nn3c2CCCC3)n1 [compound 179] | 99 | 75 | 100 |  | 100 |  | 100 | 89 |  |  |  |  |  |  |  |  | 
10 | CNc1nccc(-c2c(-c3ccccc3)nn3c2CCCC3)n1 [compound 142] | 98 | 95 | 100 | 53 | 100 | 0 | 97 |  |  |  |  |  |  |  |  |  | 
11 | CC(C)Nc1nccc(-c2c(-c3ccc(F)cc3)nn3c2CCCC3)n1.Cl [compound 69] | 99 | 59 | 100 |  | 97 |  | 100 |  | 97 | 100 |  |  |  |  |  |  | 
12 | CC(C)Nc1nccc(-c2c(-c3ccsc3)nn3c2CCCC3)n1 [compound 43] | 90 | 0 | 96 |  | 92 |  | 98 |  | 97 | 100 |  |  |  |  |  |  | 
13 | CC(C)Nc1nccc(-c2c(-c3ccc(F)cc3)nn3c2CSCC3)n1 [compound 110] | 60 | 0 | 17 |  | 95 |  | 92 |  | 99 | 100 |  |  |  |  |  |  | 
14 | Cc1ccccc1-c1nn2c(c1-c1ccnc(NC(C)CO)n1)CCCC2 (centres unmarked) [compound 46] | 0 | 0 | 50 |  | 74 |  | 0 |  | 97 | 100 |  |  |  |  |  |  | 
15 | CCC(CO)Nc1nccc(-c2c(-c3ccc(F)cc3)nn3c2CCCC3)n1 (centres unmarked) [compound 31] | 78 | 0 | 98 |  | 95 |  | 94 |  | 80 | 99 |  |  |  |  |  |  | 
16 | CC(CO)Nc1nccc(-c2c(-c3ccccc3F)nn3c2CCCC3)n1 (centres unmarked) [compound 38] | 64 | 0 | 92 |  | 94 |  | 96 |  | 95 | 99 |  |  |  |  |  |  | 
17 | CC(CO)Nc1nccc(-c2c(-c3ccsc3)nn3c2COCC3)n1 (centres unmarked) [compound 124] | 60 | 0 | 54 |  | 86 |  | 98 |  | 66 | 99 |  |  |  |  |  |  | 
18 | CC(CO)Nc1nccc(-c2c(-c3ccc(F)cc3)nn3c2Cc2ccccc2C3)n1 (centres unmarked) [compound 140] | 0 | 0 | 49 |  | 90 |  | 98 |  | 26 | 99 |  |  |  |  |  |  | 
19 | COCC(C)Nc1nccc(-c2c(-c3ccc(F)cc3F)nn3c2CSC3)n1 (centres unmarked) [Compound 83, 4-[2-(2,4-difluorophenyl)-4H,6H-pyrazolo[1,5-c]thiazol-3-yl]-N-(2-methoxy-1-methylethyl)-2-pyrimidinamine] |  |  |  |  |  |  |  |  |  |  | 0 | 93 | 99 | 60 | 0 | 67 | 0
20 | CC(C)Nc1nccc(-c2c(-c3ccccc3F)nn3c2CCC3)n1 [compound 97] | 82 | 0 | 61 |  | 55 |  | 100 |  | 96 | 100 |  |  |  |  |  |  | 
21 | CNc1nccc(-c2c(-c3cccc(C)c3)nn3c2CCCC3)n1 [compound 187] | 92 | 79 | 99 | 92 | 99 |  |  |  |  |  |  |  |  |  |  |  | 
22 | Fc1ccc(-c2nn3c(c2-c2ccnc(NC4CC4)n2)COCC3)c(F)c1 [compound 126] | 82 | 0 | 70 |  | 86 |  | 99 |  | 87 | 99 |  |  |  |  |  |  | 
